Where two headings read alike, the source gives them in different places.

For test [1], the system named is HeLa cells. The test is described as follows: Proliferation assay HeLa (crystal violet).
Method: (§1) After 24 hours, the cells of one plate (zero plate) were dyed with crystal violet (see below), whereas the medium of the other plates was replaced with fresh culture medium (200 μl) to which the test substances were added in various concentrations (0 μM, and also in the range of 0.001-10 μM; the final concentration of the solvent dimethyl sulphoxide was 0.1 or 0.5%). The cells were incubated for 4 days in the presence of the test substances. […] After washing the fixed cells three times with water, the plates were dried at room temperature. The cells were stained by adding 100 μl/measurement point of a 0.1% strength crystal violet solution (pH adjusted to pH 3 by adding acetic acid). After washing the cells three times with water, the plates were dried at room temperature. The dye was dissolved by adding 100 μl/measurement point of a 10% strength acetic acid solution. […] The percentage change in cell growth was calculated by normalizing the measured values to the absorbance values of the zero plate (=0%) and the absorbance of the untreated (0 μM) cells (=100%). The IC50 values were determined by means of a four parameter fit.
Test [2] concerns NCI-H460 cells. In words: Proliferation assay NCI-H460 (crystal violet). Particulars: read-out: Inhibition of NCI-H460 cell proliferation, 4 days incubation.
Method: as §1
The target in test [3] is full-length human ATR protein (Homo sapiens (Human), UniProt Q13535). In words: Binding assay ATR (TR-FRET tracer displacement). To be noted: TR-FRET. In short, it runs like this:
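Full-length human GST-ATR co-purified with ATRIP, pre-complexed 30 min at 22 °C with anti-GST-Tb antibody, then pre-bound with compound 10 min. Tracer A or B added (2 µl of 100 nM solution), 30 min at 22 °C.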

Test [4] deals with Caco-2 cells. The test is described as follows: Proliferation assay Caco-2 (crystal violet). It is filed as cell-based, human. Particulars: 4 days incubation, read-out: Inhibition of Caco-2 cell proliferation.
Method: as §1
In test [5] the test system is DU145 cells. The test is described as follows: Proliferation assay DU145 (crystal violet). Particulars: read-out: Inhibition of DU145 cell proliferation, 4 days incubation.
Method: as §1
Where [6] appears, read: tracer A, read-out: ATR binding (tracer A) IC50.

Chain of full-length human ATR protein (Q13535 other isoform, or with tags, fused parts or gaps): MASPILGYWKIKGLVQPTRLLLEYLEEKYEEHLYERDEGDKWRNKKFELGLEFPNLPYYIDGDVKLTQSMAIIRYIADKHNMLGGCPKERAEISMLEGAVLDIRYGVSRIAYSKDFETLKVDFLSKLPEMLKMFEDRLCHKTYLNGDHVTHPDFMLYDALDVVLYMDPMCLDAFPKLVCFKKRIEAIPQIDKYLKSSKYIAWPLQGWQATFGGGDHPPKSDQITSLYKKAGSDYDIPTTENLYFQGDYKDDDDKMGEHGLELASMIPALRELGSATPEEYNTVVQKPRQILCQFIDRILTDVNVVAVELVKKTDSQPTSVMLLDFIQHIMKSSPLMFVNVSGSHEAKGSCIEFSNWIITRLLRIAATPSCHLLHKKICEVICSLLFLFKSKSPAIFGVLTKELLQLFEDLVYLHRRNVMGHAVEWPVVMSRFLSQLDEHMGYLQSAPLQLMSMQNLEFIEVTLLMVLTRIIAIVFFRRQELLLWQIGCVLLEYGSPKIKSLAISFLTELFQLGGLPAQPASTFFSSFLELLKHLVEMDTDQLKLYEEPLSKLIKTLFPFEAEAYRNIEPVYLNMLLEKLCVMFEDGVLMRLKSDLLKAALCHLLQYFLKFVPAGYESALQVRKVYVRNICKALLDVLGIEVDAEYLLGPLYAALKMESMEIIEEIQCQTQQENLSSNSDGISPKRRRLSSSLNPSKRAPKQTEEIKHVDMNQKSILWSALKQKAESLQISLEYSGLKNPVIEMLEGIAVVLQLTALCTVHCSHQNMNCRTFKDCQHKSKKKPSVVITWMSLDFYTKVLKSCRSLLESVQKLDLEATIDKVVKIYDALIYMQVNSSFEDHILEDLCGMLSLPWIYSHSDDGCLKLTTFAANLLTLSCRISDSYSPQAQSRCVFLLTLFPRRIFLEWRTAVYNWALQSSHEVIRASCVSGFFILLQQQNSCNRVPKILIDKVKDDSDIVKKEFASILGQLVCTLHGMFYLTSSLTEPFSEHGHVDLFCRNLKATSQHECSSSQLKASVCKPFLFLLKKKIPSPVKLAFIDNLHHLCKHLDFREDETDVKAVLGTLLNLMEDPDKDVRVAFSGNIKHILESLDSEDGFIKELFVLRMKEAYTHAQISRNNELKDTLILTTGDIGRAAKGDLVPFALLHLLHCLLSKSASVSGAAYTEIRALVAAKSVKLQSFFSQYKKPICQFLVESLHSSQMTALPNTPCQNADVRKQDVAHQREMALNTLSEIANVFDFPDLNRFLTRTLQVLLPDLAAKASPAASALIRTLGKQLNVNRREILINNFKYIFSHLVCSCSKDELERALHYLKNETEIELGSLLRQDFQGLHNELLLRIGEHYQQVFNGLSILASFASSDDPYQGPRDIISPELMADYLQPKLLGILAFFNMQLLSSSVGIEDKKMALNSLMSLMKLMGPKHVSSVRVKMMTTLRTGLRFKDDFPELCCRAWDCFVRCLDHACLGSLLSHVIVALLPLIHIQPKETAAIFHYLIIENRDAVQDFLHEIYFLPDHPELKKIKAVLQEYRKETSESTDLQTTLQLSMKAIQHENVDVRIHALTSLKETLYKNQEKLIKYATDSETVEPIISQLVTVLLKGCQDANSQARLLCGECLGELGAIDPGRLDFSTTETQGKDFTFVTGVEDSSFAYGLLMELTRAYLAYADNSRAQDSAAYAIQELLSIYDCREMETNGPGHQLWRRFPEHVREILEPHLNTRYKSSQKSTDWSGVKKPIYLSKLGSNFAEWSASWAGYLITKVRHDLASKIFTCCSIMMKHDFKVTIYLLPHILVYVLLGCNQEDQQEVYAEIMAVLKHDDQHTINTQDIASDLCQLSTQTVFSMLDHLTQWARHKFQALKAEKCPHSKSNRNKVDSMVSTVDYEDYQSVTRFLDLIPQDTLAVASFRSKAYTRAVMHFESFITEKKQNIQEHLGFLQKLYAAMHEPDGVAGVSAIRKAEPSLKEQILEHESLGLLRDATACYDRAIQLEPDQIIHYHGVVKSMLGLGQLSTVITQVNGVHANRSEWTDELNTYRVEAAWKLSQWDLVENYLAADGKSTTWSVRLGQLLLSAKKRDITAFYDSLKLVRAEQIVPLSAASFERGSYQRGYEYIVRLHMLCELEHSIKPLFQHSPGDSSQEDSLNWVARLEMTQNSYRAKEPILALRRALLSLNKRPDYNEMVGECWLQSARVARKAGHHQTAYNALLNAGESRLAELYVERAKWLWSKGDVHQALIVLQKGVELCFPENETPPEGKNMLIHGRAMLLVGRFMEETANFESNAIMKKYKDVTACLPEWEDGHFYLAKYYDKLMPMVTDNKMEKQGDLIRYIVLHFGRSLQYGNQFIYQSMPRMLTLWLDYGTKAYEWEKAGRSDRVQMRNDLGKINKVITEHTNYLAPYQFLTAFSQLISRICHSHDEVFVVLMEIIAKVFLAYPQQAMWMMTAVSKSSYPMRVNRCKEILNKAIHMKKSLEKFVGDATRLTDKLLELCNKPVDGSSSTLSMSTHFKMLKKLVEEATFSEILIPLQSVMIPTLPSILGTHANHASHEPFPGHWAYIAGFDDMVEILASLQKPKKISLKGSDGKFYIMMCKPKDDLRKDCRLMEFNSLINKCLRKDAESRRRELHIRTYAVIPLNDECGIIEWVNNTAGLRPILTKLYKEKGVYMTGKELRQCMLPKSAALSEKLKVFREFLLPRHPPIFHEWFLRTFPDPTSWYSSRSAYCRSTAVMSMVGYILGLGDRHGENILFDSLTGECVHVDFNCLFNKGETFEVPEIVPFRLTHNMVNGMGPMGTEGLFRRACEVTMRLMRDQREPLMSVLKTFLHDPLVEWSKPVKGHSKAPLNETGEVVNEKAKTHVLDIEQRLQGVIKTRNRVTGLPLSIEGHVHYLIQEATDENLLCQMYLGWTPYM
Chain of full-length human ATR protein (Q8WXE1 other isoform, or with tags, fused parts or gaps partner): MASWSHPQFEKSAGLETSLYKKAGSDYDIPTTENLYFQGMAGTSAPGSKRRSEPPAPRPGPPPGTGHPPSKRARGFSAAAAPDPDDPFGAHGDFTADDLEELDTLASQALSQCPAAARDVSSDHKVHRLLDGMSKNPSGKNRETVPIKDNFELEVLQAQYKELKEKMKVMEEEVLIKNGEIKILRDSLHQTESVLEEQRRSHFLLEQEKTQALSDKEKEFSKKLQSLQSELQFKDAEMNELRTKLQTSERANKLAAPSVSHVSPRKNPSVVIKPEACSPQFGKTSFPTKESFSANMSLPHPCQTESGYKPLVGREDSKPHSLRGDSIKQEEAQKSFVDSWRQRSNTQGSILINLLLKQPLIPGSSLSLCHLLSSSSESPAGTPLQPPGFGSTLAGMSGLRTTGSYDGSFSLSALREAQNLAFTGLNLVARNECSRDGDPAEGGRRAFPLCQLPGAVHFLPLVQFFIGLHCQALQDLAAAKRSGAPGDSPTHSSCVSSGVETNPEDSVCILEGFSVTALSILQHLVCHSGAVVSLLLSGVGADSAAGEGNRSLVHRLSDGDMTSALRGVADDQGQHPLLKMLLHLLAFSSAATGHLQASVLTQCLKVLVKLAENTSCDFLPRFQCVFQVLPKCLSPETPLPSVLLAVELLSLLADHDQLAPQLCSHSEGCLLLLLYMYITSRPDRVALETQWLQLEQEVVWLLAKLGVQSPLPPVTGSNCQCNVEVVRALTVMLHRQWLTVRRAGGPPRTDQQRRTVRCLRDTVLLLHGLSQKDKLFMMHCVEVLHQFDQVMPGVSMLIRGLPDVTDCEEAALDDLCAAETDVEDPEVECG

Consider “5-fluoro-2-{2-[(3R)-3-methylmorpholin-4-yl]-8-(1H-pyrazol-5-yl)-1,7-naphthyridin-4-yl}aniline [Example 190]”, for which, in test [1] (read-out: Inhibition of HeLa cell proliferation, HeLa cells, 4 days incubation, crystal violet), the IC50 was determined as 334 nM.

`CS(=O)(=O)c1cc(N2CCOCC2)nc2c(-c3cc[nH]n3)nccc12` [Example 32]: the IC50 came out at 1950 nM in test [2]; 84.7 nM in test [3] (setting [6]); 36.7 nM in test [3] (tracer B, read-out: ATR binding (tracer B) IC50).

Regarding `CCOP(C)(=O)c1cc(N2CCOC[C@H]2C)nc2c(-c3ccn[nH]3)nccc12` (stereo partly drawn) [Example 125, Ethyl methyl{2-[(3R)-3-methylmorpholin-4-yl]-8-(1H-pyrazol-5-yl)-1,7-naphthyridin-4-yl}phosphinate], the IC50 is 2630 nM in test [4], 541 nM in test [2], 764 nM in test [5] and 17.2 nM in test [3] (setting [6]).

On to `c1cc(-c2nccc3c(N4C[C@@H]5C[C@H]4CO5)cc(N4CCOCC4)nc23)[nH]n1` [Example 185, 2-(morpholin-4-yl)-4-[(1S,4S)-2-oxa-5-azabicyclo[2.2.1]hept-5-yl]-8-(1H-pyrazol-5-yl)-1,7-naphthyridine], for which the IC50 in test [1] (Homo sapiens, HeLa, 96 h, read-out: Inhibition of HeLa cell proliferation, HeLa cells, 4 days incubation, crystal violet) is > 3000 nM; in test [3] (setting [6]) it was 852 nM.

With `O=S1(=O)CCCN1c1cc(N2CCOCC2)nc2c(-c3ccn[nH]3)nccc12` [Example 216, 4-(1,1-dioxido-1,2-thiazolidin-2-yl)-2-(morpholin-4-yl)-8-(1H-pyrazol-5-yl)-1,7-naphthyridine], the IC50 in test [2] came to 1020 nM; in test [5], 1330 nM; in test [3] (setting [6]), 84.4 nM.

As to `COC(=O)c1cc(-c2cc(N3CCOCC3)nc3c(-c4ccn[nH]4)nccc23)cs1` [Example 403, methyl 4-[2-(morpholin-4-yl)-8-(1H-pyrazol-5-yl)-1,7-naphthyridin-4-yl]thiophene-2-carboxylate], the IC50 in test [3] (setting [6]) worked out at 194 nM.

Take `COc1ncc(C(F)(F)F)cc1-c1cc(N2CCOCC2)nc2c(-c3ccn[nH]3)nccc12` [Example 404, 4-[2-methoxy-5-(trifluoromethyl)pyridin-3-yl]-2-(morpholin-4-yl)-8-(1H-pyrazol-5-yl)-1,7-naphthyridine]: the IC50 in test [3] (setting [6]) was 424 nM.

`CC(C)Oc1ncccc1-c1cc(N2CCOCC2)nc2c(-c3ccn[nH]3)nccc12` [Example 405, 2-(morpholin-4-yl)-4-[2-(propan-2-yloxy)pyridin-3-yl]-8-(1H-pyrazol-5-yl)-1,7-naphthyridine]: in test [3] (setting [6]), the IC50 amounted to 419 nM.

`CC(C)(C)n1cc(-c2cc(N3CCOCC3)nc3c(-c4ccn[nH]4)nccc23)cn1` [Example 407, 4-(1-tert-butyl-1H-pyrazol-4-yl)-2-(morpholin-4-yl)-8-(1H-pyrazol-5-yl)-1,7-naphthyridine]: the IC50 in test [3] (setting [6]) is 309 nM.

On to `c1cc(-c2nccc3c(N4CCCCC4)cc(N4CCOCC4)nc23)[nH]n1` [Example 408, 2-(morpholin-4-yl)-4-(piperidin-1-yl)-8-(1H-pyrazol-5-yl)-1,7-naphthyridine], for which the IC50 in test [3] (setting [6]) turned out to be 65.1 nM.

Consider `OC1CCN(c2cc(N3CCOCC3)nc3c(-c4ccn[nH]4)nccc23)CC1` [Example 409, 1-[2-(morpholin-4-yl)-8-(1H-pyrazol-5-yl)-1,7-naphthyridin-4-yl]piperidin-4-ol], for which the IC50 in test [3] (setting [6]) turned out to be 139 nM.

In the case of `CN(c1ccccc1)c1cc(N2CCOCC2)nc2c(-c3ccn[nH]3)nccc12` [Example 410, N-methyl-2-(morpholin-4-yl)-N-phenyl-8-(1H-pyrazol-5-yl)-1,7-naphthyridin-4-amine], the IC50 in test [3] (setting [6]) was found to be 153 nM.

Regarding `CCCN(C)c1cc(N2CCOCC2)nc2c(-c3ccn[nH]3)nccc12` [Example 412, N-methyl-2-(morpholin-4-yl)-N-propyl-8-(1H-pyrazol-5-yl)-1,7-naphthyridin-4-amine], the IC50 in test [3] (setting [6]) is 162 nM.

For `c1cc(-c2nccc3c(N4CCCCCC4)cc(N4CCOCC4)nc23)[nH]n1` [Example 413, 4-(azepan-1-yl)-2-(morpholin-4-yl)-8-(1H-pyrazol-5-yl)-1,7-naphthyridine], the IC50 in test [3] (setting [6]) turned out to be 279 nM.

For the compound `CC1CCN(c2cc(N3CCOCC3)nc3c(-c4ccn[nH]4)nccc23)CC1` [Example 415, 4-(4-methylpiperidin-1-yl)-2-(morpholin-4-yl)-8-(1H-pyrazol-5-yl)-1,7-naphthyridine], the IC50 in test [3] (setting [6]) is 32.7 nM.

`NC(=O)C1CCCN(c2cc(N3CCOCC3)nc3c(-c4ccn[nH]4)nccc23)C1` (stereo not drawn) [Example 416, 1-[2-(morpholin-4-yl)-8-(1H-pyrazol-5-yl)-1,7-naphthyridin-4-yl]piperidine-3-carboxamide]: in test [3] (setting [6]), the IC50 is 251 nM.

As for `C1=CCN(c2cc(N3CCOCC3)nc3c(-c4ccn[nH]4)nccc23)C1` [Example 417, 4-(2,5-dihydro-1H-pyrrol-1-yl)-2-(morpholin-4-yl)-8-(1H-pyrazol-5-yl)-1,7-naphthyridine], the IC50 in test [3] (setting [6]) is 1070 nM.

With `c1ccc2c(c1)CCCN2c1cc(N2CCOCC2)nc2c(-c3ccn[nH]3)nccc12` [Example 418, 4-(3,4-dihydroquinolin-1(2H)-yl)-2-(morpholin-4-yl)-8-(1H-pyrazol-5-yl)-1,7-naphthyridine], in test [3] (setting [6]), the IC50 is 94.1 nM.

For `c1ccc2c(c1)CCN(c1cc(N3CCOCC3)nc3c(-c4ccn[nH]4)nccc13)C2` [Example 419, 4-(3,4-dihydroisoquinolin-2(1H)-yl)-2-(morpholin-4-yl)-8-(1H-pyrazol-5-yl)-1,7-naphthyridine], the IC50 in test [3] (setting [6]) amounted to 118 nM.

In the case of `c1ccc2c(c1)CN(c1cc(N3CCOCC3)nc3c(-c4ccn[nH]4)nccc13)C2` [Example 420, 4-(1,3-dihydro-2H-isoindol-2-yl)-2-(morpholin-4-yl)-8-(1H-pyrazol-5-yl)-1,7-naphthyridine], the IC50 in test [3] (setting [6]) came out at 602 nM.

Turning to `CC(C)(C)OC(=O)[C@@H]1CCCN1c1cc(N2CCOCC2)nc2c(-c3ccn[nH]3)nccc12` [Example 422, tert-butyl 1-[2-(morpholin-4-yl)-8-(1H-pyrazol-5-yl)-1,7-naphthyridin-4-yl]-prolinate], the IC50 in test [3] (setting [6]) stood at 2240 nM.

For the compound `CC(C)CN(C)c1cc(N2CCOCC2)nc2c(-c3ccn[nH]3)nccc12` [Example 423, N-methyl-N-(2-methylpropyl)-2-(morpholin-4-yl)-8-(1H-pyrazol-5-yl)-1,7-naphthyridin-4-amine], the IC50 in test [3] (setting [6]) was 83.9 nM.

As for `CN(c1cccc(F)c1)c1cc(N2CCOCC2)nc2c(-c3ccn[nH]3)nccc12` [Example 424, N-(3-fluorophenyl)-N-methyl-2-(morpholin-4-yl)-8-(1H-pyrazol-5-yl)-1,7-naphthyridin-4-amine], in test [3] (setting [6]), the IC50 amounted to 241 nM.

In the case of `O=S1(=O)CCC12CN(c1cc(N3CCOCC3)nc3c(-c4ccn[nH]4)nccc13)C2` [Example 425, 4-(1,1-dioxido-1-thia-6-azaspiro[3.3]hept-6-yl)-2-(morpholin-4-yl)-8-(1H-pyrazol-5-yl)-1,7-naphthyridine], the IC50 in test [3] (setting [6]) stood at 1000 nM.

On to `FC1CCCN(c2cc(N3CCOCC3)nc3c(-c4ccn[nH]4)nccc23)C1` (stereo not drawn) [Example 426, 4-(3-fluoropiperidin-1-yl)-2-(morpholin-4-yl)-8-(1H-pyrazol-5-yl)-1,7-naphthyridine], for which the IC50 in test [3] (setting [6]) stood at 159 nM.

Consider `CN(c1ccccc1F)c1cc(N2CCOCC2)nc2c(-c3ccn[nH]3)nccc12` [Example 427, N-(2-fluorophenyl)-N-methyl-2-(morpholin-4-yl)-8-(1H-pyrazol-5-yl)-1,7-naphthyridin-4-amine], for which the IC50 in test [3] (setting [6]) was determined as 112 nM.

For the compound `OCC1CCN(c2cc(N3CCOCC3)nc3c(-c4ccn[nH]4)nccc23)CC1` [Example 429, {1-[2-(morpholin-4-yl)-8-(1H-pyrazol-5-yl)-1,7-naphthyridin-4-yl]piperidin-4-yl}methanol], the IC50 in test [3] (setting [6]) is 44.8 nM.

For `COC1CCN(c2cc(N3CCOCC3)nc3c(-c4ccn[nH]4)nccc23)CC1` [Example 430, 4-(4-methoxypiperidin-1-yl)-2-(morpholin-4-yl)-8-(1H-pyrazol-5-yl)-1,7-naphthyridine], the IC50 in test [3] (setting [6]) worked out at 61.3 nM.

Take `CN(c1ccc(F)cc1)c1cc(N2CCOCC2)nc2c(-c3ccn[nH]3)nccc12` [Example 431, N-(4-fluorophenyl)-N-methyl-2-(morpholin-4-yl)-8-(1H-pyrazol-5-yl)-1,7-naphthyridin-4-amine]: the IC50 in test [3] (setting [6]) amounted to 34.7 nM.

On to `CNC(=O)[C@@H]1CCCN1c1cc(N2CCOCC2)nc2c(-c3ccn[nH]3)nccc12` [Example 432, N-methyl-1-[2-(morpholin-4-yl)-8-(1H-pyrazol-5-yl)-1,7-naphthyridin-4-yl]-prolinamide], for which the IC50 in test [3] (setting [6]) was found to be 2040 nM.

As for `CCS(=O)(=O)N1CCN(c2cc(N3CCOCC3)nc3c(-c4ccn[nH]4)nccc23)CC1` [Example 433, 4-[4-(ethylsulfonyl)piperazin-1-yl]-2-(morpholin-4-yl)-8-(1H-pyrazol-5-yl)-1,7-naphthyridine], in test [3] (setting [6]), the IC50 was 41.6 nM.

As for `CS(=O)(=O)N1CCN(c2cc(N3CCOCC3)nc3c(-c4ccn[nH]4)nccc23)CC1` [Example 434, 4-[4-(methylsulfonyl)piperazin-1-yl]-2-(morpholin-4-yl)-8-(1H-pyrazol-5-yl)-1,7-naphthyridine], the IC50 in test [3] (setting [6]) amounted to 31.8 nM.

On to `CN(c1cc(N2CCOCC2)nc2c(-c3ccn[nH]3)nccc12)C1CC1` [Example 435, N-cyclopropyl-N-methyl-2-(morpholin-4-yl)-8-(1H-pyrazol-5-yl)-1,7-naphthyridin-4-amine], for which the IC50 in test [3] (setting [6]) is 65.1 nM.

Regarding `CN(CC(C)(C)C)c1cc(N2CCOCC2)nc2c(-c3ccn[nH]3)nccc12` [Example 436, N-(2,2-dimethylpropyl)-N-methyl-2-(morpholin-4-yl)-8-(1H-pyrazol-5-yl)-1,7-naphthyridin-4-amine], the IC50 in test [3] (setting [6]) turned out to be 24 nM.

These data come from patent US9549932B2, “2-(morpholin-4-yl)-1,7-naphthyridines” (BAYER PHARMA AKTIENGESELLSCHAFT, priority 2014, dated 2017).
